The source made the active and inactive calls.
Experiments:
Caspase-3 = biological target: T1, Caspase-3 (Homo sapiens, UniProt P42574); format: functional;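 note: Dose-response selectivity test against caspase-3 for candidate inhibitors of sentrin-specific proteases (SENPs)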
T1 sequence (P42574 whole entry): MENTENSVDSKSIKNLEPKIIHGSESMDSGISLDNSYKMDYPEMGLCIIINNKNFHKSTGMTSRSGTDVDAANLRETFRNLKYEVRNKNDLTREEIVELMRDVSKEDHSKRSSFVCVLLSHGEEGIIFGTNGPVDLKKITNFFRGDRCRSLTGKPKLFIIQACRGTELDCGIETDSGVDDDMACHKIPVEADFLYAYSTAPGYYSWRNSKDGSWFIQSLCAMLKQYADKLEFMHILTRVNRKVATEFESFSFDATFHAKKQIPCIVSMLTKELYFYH

[1] = biological target: T2, Sentrin-specific protease 7 (Homo sapiens, UniProt Q9BQF6); format: functional;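 note: Luminescence-based dose-response confirmation of ultra-high-throughput screening hits, measuring inhibition of SENP7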
T2 sequence (Q9BQF6 whole entry): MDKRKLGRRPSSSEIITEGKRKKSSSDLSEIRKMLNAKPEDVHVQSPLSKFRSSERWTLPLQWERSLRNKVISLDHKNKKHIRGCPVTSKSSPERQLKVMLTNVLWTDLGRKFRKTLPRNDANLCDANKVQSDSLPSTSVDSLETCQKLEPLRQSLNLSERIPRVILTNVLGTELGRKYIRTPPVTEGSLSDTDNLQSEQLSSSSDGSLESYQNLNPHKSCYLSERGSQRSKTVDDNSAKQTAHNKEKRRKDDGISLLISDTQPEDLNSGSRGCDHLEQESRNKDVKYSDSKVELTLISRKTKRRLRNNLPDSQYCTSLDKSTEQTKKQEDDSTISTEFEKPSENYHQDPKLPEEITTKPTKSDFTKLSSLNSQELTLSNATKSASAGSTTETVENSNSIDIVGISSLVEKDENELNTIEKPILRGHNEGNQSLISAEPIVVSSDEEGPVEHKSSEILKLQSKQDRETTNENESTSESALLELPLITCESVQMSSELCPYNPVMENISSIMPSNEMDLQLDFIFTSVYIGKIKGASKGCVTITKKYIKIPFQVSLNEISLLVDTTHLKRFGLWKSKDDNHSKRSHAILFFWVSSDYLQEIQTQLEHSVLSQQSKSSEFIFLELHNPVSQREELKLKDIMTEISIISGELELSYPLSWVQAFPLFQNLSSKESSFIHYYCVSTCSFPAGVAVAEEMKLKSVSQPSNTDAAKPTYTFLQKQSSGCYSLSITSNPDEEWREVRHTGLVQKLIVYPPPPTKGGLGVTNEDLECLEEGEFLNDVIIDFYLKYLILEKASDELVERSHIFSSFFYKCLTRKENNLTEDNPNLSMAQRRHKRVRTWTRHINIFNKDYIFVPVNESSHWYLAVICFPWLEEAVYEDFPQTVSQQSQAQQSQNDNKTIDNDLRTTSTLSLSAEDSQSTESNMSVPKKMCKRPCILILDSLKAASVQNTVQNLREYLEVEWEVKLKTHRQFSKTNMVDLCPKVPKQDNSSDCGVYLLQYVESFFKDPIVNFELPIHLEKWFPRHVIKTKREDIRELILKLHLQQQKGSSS

[2] = biological target: T3, Sentrin-specific protease 6 (Homo sapiens, UniProt Q9GZR1); format: functional;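 note: Luminescence-based dose-response confirmatory assay of SENP6 inhibition, following up an ultra-high-throughput screen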
T3 sequence (Q9GZR1 whole entry): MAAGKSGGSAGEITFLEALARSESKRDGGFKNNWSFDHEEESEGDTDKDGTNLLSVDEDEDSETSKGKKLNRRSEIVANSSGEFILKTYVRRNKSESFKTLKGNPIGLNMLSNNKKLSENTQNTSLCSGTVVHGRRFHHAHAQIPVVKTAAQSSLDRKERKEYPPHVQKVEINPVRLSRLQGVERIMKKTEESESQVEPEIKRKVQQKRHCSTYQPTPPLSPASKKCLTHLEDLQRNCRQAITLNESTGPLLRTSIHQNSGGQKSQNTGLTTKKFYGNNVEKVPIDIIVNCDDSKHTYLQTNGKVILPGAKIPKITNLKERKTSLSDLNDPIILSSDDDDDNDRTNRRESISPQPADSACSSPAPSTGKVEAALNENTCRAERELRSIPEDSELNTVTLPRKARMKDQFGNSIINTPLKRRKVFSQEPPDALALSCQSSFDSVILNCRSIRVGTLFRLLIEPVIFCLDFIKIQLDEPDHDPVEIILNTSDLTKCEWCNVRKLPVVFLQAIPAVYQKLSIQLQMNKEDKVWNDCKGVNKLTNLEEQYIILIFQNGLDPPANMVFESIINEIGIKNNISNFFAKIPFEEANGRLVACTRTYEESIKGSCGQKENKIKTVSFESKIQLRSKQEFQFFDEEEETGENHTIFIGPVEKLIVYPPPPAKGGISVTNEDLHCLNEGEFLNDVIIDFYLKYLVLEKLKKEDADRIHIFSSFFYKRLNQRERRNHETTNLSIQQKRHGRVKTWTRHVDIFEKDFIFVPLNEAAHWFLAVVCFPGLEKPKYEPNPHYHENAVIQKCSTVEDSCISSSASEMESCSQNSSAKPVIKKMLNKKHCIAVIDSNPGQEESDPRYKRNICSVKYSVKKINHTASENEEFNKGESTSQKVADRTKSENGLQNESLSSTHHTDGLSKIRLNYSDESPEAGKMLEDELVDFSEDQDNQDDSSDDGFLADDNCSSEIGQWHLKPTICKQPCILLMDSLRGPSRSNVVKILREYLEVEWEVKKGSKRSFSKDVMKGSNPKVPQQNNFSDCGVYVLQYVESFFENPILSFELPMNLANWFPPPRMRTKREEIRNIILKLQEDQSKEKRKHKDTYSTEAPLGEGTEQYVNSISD

[3] = biological target: T4, Sentrin-specific protease 8 (Homo sapiens, UniProt Q96LD8); format: functional;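 note: luminescence read-out of SENP8 inhibition, dose-response confirmation following an ultra-high-throughput screen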
T4 sequence (Q96LD8 whole entry): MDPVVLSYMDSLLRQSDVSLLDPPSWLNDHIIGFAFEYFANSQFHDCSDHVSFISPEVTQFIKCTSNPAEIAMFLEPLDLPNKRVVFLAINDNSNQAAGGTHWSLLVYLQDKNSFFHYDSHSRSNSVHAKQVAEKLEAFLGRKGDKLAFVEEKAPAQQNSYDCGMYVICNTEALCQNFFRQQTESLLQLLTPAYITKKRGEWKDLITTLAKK

HEK293 = assay: EBV LMP1 TES2 canonical NF-kB signalling blockers – cell-based, HEK293, luciferase, cherry-pick, dose response (AID 588343); format: functional; conditions: Homo sapiens
cells = format: functional, cell-based
[4] = biological target: T5, Nuclear receptor subfamily 0 group B member 1 (Homo sapiens, UniProt P51843); format: functional, cell-based;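 note: HEK293T cells transfected with SF-1 and DAX-1 plus StAR promoter luciferase reporter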
T5 sequence (P51843 whole entry): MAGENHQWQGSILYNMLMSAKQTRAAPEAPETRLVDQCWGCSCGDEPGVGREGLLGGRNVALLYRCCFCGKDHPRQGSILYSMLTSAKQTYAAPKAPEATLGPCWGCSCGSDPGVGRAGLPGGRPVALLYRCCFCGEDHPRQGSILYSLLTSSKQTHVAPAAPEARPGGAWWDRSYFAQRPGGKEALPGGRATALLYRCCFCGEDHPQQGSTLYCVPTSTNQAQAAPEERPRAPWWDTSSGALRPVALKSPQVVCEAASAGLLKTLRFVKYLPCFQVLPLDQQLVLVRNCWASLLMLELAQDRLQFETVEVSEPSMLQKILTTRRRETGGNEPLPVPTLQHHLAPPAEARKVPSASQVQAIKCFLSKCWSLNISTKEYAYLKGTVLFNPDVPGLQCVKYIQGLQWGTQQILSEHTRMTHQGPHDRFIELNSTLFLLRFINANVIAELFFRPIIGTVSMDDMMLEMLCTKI

[5] = A549 cell cytotoxicity, dose response, cytotoxicity control, plate reader, cherry-pick, antagonist series (AID 743412); format: functional, cell-based
[6] = blockers of bursicon-stimulated LGR2 cAMP reporter – cell-based, HEK293, CRE-luciferase reporter, cherry pick, set 2, dose response (AID 743343); format: functional;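 note: transfected cells were stimulated with diluted bursicon conditioned medium after compound addition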
[7] = blockade of melanocortin 4 receptor signaling – cell-based, plate reader, cherry pick, counter-screen for LGR2 antagonist project, dose response (AID 743444); format: functional;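 note: transfected HEK 293 cells stimulated with alpha-MSH peptide; potency of inhibitors of the alpha-MSH evoked signal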
BJ [8] = assay: BJ-TERT fibroblast viability loss – cell-based, RAS-independent, luminescence, dose response (AID 1933); format: functional; conditions: Homo sapiens
BJ [9] = assay: cells; format: functional, cell-based; conditions: Homo sapiens
BJ [10] = assay: BJ-TERT-LT-ST fibroblast viability loss – cell-based, RAS-independent, luminescence, dose response (AID 1935); format: functional; conditions: Homo sapiens;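 note: BJ fibroblasts immortalized with TERT plus LT and ST oncogenes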
[11] = DRD fibroblast viability loss – cell-based, non-viral oncogenic, luminescence, dose response (AID 1934); format: functional; conditions: Homo sapiens
[12] = biological target: T6, Microphthalmia-associated transcription factor (Homo sapiens, UniProt O75030); assay: reducers of TRPM1 reporter luminescence, concentration series – cell-based, SK-MEL-5, cherry-picked, set 3, MITF inhibitor project, dose response (AID 493073); format: functional;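 note: SK-MEL-5 melanoma cells with luciferase driven by the MITF target TRPM1 promoter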
T6 sequence (O75030 whole entry): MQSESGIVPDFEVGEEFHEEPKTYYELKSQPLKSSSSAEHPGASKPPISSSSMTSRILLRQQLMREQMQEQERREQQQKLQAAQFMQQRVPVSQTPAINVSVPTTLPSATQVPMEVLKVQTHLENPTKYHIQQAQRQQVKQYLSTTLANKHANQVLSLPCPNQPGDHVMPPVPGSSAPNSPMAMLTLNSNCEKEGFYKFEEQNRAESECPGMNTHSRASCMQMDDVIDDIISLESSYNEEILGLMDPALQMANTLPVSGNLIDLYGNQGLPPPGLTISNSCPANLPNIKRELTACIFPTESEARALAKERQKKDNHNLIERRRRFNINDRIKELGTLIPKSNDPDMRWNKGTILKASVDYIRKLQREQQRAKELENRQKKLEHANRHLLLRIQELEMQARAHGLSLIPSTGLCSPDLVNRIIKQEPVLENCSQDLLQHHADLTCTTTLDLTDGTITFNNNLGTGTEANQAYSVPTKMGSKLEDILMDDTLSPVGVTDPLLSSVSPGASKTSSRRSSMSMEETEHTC

BJ [13] = assay: growth inhibition of engineered Ras-driven BJ cells – cell-based, alamar blue fluorescence, cherrypicked samples, dose response (AID 2631); format: functional; conditions: Homo sapiens;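 note: confirmatory dose-response assay in RAS-dependent BJ fibroblasts engineered with TERT, LT and ST, with cytotoxicity read by fluorescence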
Large T antigen = Large T antigen (Simian virus 40, UniProt P03070); format: functional, Betapolyomavirus macacae;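 note: Confirmatory-stage PubChem screen for compounds that inhibit SV40 T antigen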
Jurkat = assay: blockers of NF-kB activation in T cells – Jurkat, luciferase reporter, luminescence, B- and T-cell, dose response (AID 489004); format: functional, cell-based; conditions: Homo sapiens;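 note: NF-kB luciferase reporter Jurkat cells stimulated with PMA plus ionomycin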
[14] = HEK-293T viability loss, compound-treated – cell-based, uHTS hits, cytotoxicity control for B/T-cell NF-kB inhibitor project, dose response (AID 489019); format: functional;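 note: IC50 reflects cytotoxicity as loss of cell viability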
[15] = biological target: T7, Rac GTPase-activating protein 1 (Homo sapiens, UniProt Q9H0H5); assay: blockers of MgcRacGAP-driven Rac1 GTP hydrolysis – biochemical, ADP Hunter fluorescence, primary and confirmatory, confirmation (AID 624330); format: functional
T7 sequence (Q9H0H5 whole entry): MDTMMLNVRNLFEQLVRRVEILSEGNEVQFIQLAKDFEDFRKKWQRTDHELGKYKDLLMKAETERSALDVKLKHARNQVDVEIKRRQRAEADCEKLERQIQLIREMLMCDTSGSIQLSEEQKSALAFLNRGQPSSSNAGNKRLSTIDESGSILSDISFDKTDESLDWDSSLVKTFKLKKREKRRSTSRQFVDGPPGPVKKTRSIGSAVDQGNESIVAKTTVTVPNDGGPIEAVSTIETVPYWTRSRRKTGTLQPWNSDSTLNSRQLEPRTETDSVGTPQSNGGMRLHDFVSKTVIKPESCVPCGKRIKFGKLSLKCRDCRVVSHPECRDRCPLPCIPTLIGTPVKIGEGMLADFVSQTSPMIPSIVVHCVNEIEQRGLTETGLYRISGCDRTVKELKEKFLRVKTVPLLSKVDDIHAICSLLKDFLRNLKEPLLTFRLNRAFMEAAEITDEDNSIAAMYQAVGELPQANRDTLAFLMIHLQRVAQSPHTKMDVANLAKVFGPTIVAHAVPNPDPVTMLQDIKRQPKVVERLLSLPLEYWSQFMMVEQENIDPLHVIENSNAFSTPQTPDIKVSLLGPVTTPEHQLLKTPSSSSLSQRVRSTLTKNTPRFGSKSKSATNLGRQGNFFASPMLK

INS1 = assay: INS-1E survival protection against cytokine death – cell-based, luminescence, retest, dose response (AID 449756); format: functional; conditions: Rattus norvegicus;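 note: cell death triggered by IL-1 beta plus TNF-alpha plus IFN-gamma mixture; protective hits raise ATP signal compared with cytokine alone wells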

Chain of Large T antigen (P03070 whole entry): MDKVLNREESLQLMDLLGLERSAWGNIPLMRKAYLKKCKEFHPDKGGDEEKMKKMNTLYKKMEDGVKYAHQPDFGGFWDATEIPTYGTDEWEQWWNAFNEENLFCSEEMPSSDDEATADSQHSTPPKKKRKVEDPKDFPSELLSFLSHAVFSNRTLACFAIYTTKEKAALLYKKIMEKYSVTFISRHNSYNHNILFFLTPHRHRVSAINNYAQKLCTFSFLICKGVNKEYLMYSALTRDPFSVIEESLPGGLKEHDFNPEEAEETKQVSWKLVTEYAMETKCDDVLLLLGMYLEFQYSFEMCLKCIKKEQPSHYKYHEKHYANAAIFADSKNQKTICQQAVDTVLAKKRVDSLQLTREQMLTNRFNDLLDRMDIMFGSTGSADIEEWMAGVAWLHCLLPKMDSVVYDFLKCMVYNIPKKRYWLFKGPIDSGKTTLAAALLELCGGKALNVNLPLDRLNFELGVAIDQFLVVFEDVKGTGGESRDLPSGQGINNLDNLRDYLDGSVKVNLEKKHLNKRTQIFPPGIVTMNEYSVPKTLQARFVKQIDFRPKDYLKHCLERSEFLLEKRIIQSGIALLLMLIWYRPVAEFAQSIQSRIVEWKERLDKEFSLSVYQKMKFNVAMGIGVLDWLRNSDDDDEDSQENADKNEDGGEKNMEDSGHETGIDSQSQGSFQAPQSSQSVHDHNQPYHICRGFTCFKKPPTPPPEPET

Structure (SMILES): CC(C)(C)C(=O)OCc1nc(-c2ccc(F)cc2)cs1
- IC50 (Caspase-3): 28.3 µM (active)
- IC50 [1]: 7.4 µM (active)
- IC50 [2]: 28.9 µM (active)
- IC50 [3]: 55.3 µM (active)

Structure (SMILES): Cc1ccc(CNc2c([N+](=O)[O-])nn(-c3ccc4c(c3)OCCO4)[n+]2[O-])cc1
- IC50 (Caspase-3): 66.5 µM (active)
- IC50 [1]: 4.7 µM (active)
- IC50 [2]: > 100 µM (inactive)
- IC50 [3]: > 100 µM (inactive)

Structure (SMILES): CCOc1ccc(C(=O)Nc2nnc(SCC(=O)NCC3CCCO3)s2)cc1 (stereo not given)
- AC50 (HEK293): 1.52 µM (active)
- IC50 (cells): > 67.5 µM (inactive)
- IC50 [4]: > 67.5 µM (inactive)
- AC50 [5]: > 52 µM (inactive)
- AC50 [6]: 3.43 µM (active)
- AC50 [7]: 3.95 µM (active)

Structure (SMILES): COc1cc(OC)cc(C(=O)N[C@H](C(=O)Nc2nc3ccccc3[nH]2)C(C)C)c1
- EC50 (BJ [8]): 1.48 µM (inconclusive)
- EC50 (BJ [9]): 2.73 µM (active)
- EC50 (BJ [10]): 1.51 µM (inconclusive)
- EC50 [11]: 1.91 µM (active)
- AC50 [12]: 2.44 µM (active)
- EC50 (BJ [13]): 0.553 µM (active)

Structure (SMILES): COc1cc(/C=N/NC(=S)Nc2cccc(C(=O)O)c2)ccc1O
- IC50 (Large T antigen): 22.1 µM (active)
- IC50 (Jurkat): 7.92 µM (active)
- IC50 [14]: > 80 µM (inactive)
- AC50 (HEK293): 1.9 µM (active)
- IC50 [15]: 44.9 µM (active)

Structure (SMILES): CC(=O)Oc1cccc(/C=C2\Sc3ccccc3C2=O)c1
- IC50 (Caspase-3): 24.9 µM (active)
- IC50 [1]: 3.15 µM (active)
- IC50 [2]: 3.99 µM (active)
- IC50 [3]: 3.32 µM (active)

Structure (SMILES): O=S(=O)(c1ccc(NC(=S)NCc2cccnc2)cc1)N1CCCCC1
- EC50 (BJ [8]): > 150 µM (not active)
- EC50 (BJ [9]): 0.594 µM (inconclusive)
- EC50 (BJ [10]): 0.767 µM (active)
- EC50 [11]: 20.5 µM (active)
- EC50 (BJ [13]): 0.623 µM (active)
- AC50 (INS1): 1.11 µM (active)

Reference: ChEMBL document CHEMBL1201862, “PubChem BioAssay data set” (2004)
